In PubChem BioAssay AID1963445 (Molecular Pharmacology Branch, DTP, NCI, 2024):
Values joined by “and” are separate entries in the source; they are usually repeats but may differ in a detail not shown here. Identical values can stand only once.

Test system: MCF7 complex spheroid growth, % test/control
Assay: Anticancer human tumor MCF7 cell line growth inhibition [Asc];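 also: spheroids exposed to compounds for 7 days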;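 as to viability, T/C: 100% = DMSO vehicle control wells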
Conditions: for viability, T/C: stronger effect = lower value
Outline: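 Complex solid-tumor spheroids incorporating human endothelial and mesenchymal stem cells received single agents or combinations over half-log dilution ranges anchored to clinical Cmax.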

[1] = curve of first compound, second compound 0.0316 µM
[2] = curve of first compound, second compound 0.1 µM
[3] = curve of first compound, second compound 0.316 µM
[4] = curve of first compound, second compound 1 µM
[5] = curve of first compound, second compound 3.16 µM
[6] = curve of first compound, second compound 10 µM
[7] = second compound 0.0316 µM, first compound 0.0316 µM
[8] = second compound 0.0316 µM, first compound 0.1 µM
[9] = second compound 0.0316 µM, first compound 0.316 µM
[10] = second compound 0.0316 µM, first compound 1 µM
[11] = second compound 0.0316 µM, first compound 3.16 µM
[12] = second compound 0.0316 µM, first compound 10 µM
[13] = second compound 0.1 µM, first compound 0.0316 µM
[14] = second compound 0.1 µM, first compound 0.1 µM
[15] = second compound 0.1 µM, first compound 0.316 µM
[16] = second compound 0.1 µM, first compound 1 µM
[17] = second compound 0.1 µM, first compound 3.16 µM
[18] = second compound 0.1 µM, first compound 10 µM
[19] = second compound 0.316 µM, first compound 0.0316 µM
[20] = second compound 0.316 µM, first compound 0.1 µM
[21] = second compound 0.316 µM, first compound 0.316 µM
[22] = second compound 0.316 µM, first compound 1 µM
[23] = second compound 0.316 µM, first compound 3.16 µM
[24] = second compound 0.316 µM, first compound 10 µM
[25] = second compound 1 µM, first compound 0.0316 µM
[26] = second compound 1 µM, first compound 0.1 µM
[27] = second compound 1 µM, first compound 0.316 µM
[28] = second compound 1 µM, first compound 1 µM
[29] = second compound 1 µM, first compound 3.16 µM
[30] = second compound 1 µM, first compound 10 µM
[31] = second compound 3.16 µM, first compound 0.0316 µM
[32] = second compound 3.16 µM, first compound 0.1 µM
[33] = second compound 3.16 µM, first compound 0.316 µM
[34] = second compound 3.16 µM, first compound 1 µM
[35] = second compound 3.16 µM, first compound 3.16 µM
[36] = second compound 3.16 µM, first compound 10 µM
[37] = second compound 10 µM, first compound 0.0316 µM
[38] = second compound 10 µM, first compound 0.1 µM
[39] = second compound 10 µM, first compound 0.316 µM
[40] = second compound 10 µM, first compound 1 µM
[41] = second compound 10 µM, first compound 3.16 µM
[42] = second compound 10 µM, first compound 10 µM

For `NC(=O)C(=Cn1cnc(-c2cc(C(F)(F)F)cc(C(F)(F)F)c2)n1)c1cncnc1` + CNC(C)C(=O)NC1CN(S(=O)(=O)c2cccc(S(=O)(=O)N3CCC4CCC(C(=O)NC(c5ccccc5)c5ccccc5)N4C(=O)C(NC(=O)C(C)NC)C3)c2)CCC2CCC(C(=O)NC(c3ccccc3)c3ccccc3)N2C1=O, the IC50 (curve of first compound, second compound 0.00316 µM) was < 0.000949 µM, the IC50 (curve of first compound, second compound 0.01 µM) was < 0.000949 µM and the IC50 [1] was < 0.000949 µM. The IC50 [2] was < 0.000949 µM, the IC50 [3] was < 0.000949 µM and the IC50 [4] was < 0.000949 µM. It also gave a viability, T/C (second compound 0.00316 µM, first compound 0.000949 µM) of 38.3%, a viability, T/C (second compound 0.00316 µM, first compound 0.003 µM) of 35.7% and a viability, T/C (second compound 0.00316 µM, first compound 0.00949 µM) of 23.6%. The viability, T/C (second compound 0.00316 µM, first compound 0.03 µM) was 16.3%, the viability, T/C (second compound 0.00316 µM, first compound 0.0949 µM) was 15.7% and the viability, T/C (second compound 0.00316 µM, first compound 0.3 µM) was 19.8%. It also gave a viability, T/C (second compound 0.01 µM, first compound 0.000949 µM) of 17.5%, a viability, T/C (second compound 0.01 µM, first compound 0.003 µM) of 12.1% and a viability, T/C (second compound 0.01 µM, first compound 0.00949 µM) of 11.6%. The viability, T/C (second compound 0.01 µM, first compound 0.03 µM) was 14.1%, the viability, T/C (second compound 0.01 µM, first compound 0.0949 µM) was 17.8% and the viability, T/C (second compound 0.01 µM, first compound 0.3 µM) was 16.7%. It also gave a viability, T/C (second compound 0.0316 µM, first compound 0.000949 µM) of 17.1%, a viability, T/C (second compound 0.0316 µM, first compound 0.003 µM) of 12.9% and a viability, T/C (second compound 0.0316 µM, first compound 0.00949 µM) of 13.1%. For the same molecule, the viability, T/C (second compound 0.0316 µM, first compound 0.03 µM) was 17%, the viability, T/C (second compound 0.0316 µM, first compound 0.0949 µM) was 19% and the viability, T/C (second compound 0.0316 µM, first compound 0.3 µM) was 20.2%. For the same molecule, the viability, T/C (second compound 0.1 µM, first compound 0.000949 µM) was 14.6%, the viability, T/C (second compound 0.1 µM, first compound 0.003 µM) was 14.6% and the viability, T/C (second compound 0.1 µM, first compound 0.00949 µM) was 13.7%. It also gave a viability, T/C (second compound 0.1 µM, first compound 0.03 µM) of 14.3%, a viability, T/C (second compound 0.1 µM, first compound 0.0949 µM) of 22.9% and a viability, T/C (second compound 0.1 µM, first compound 0.3 µM) of 22.2%. It also gave a viability, T/C (second compound 0.316 µM, first compound 0.000949 µM) of 12.9%, a viability, T/C (second compound 0.316 µM, first compound 0.003 µM) of 16% and a viability, T/C (second compound 0.316 µM, first compound 0.00949 µM) of 14.4%. For the same molecule, the viability, T/C (second compound 0.316 µM, first compound 0.03 µM) was 14.5%, the viability, T/C (second compound 0.316 µM, first compound 0.0949 µM) was 22.4% and the viability, T/C (second compound 0.316 µM, first compound 0.3 µM) was 23.7%. For the same molecule, the viability, T/C (second compound 1 µM, first compound 0.000949 µM) was 13.9%, the viability, T/C (second compound 1 µM, first compound 0.003 µM) was 16% and the viability, T/C (second compound 1 µM, first compound 0.00949 µM) was 13.9%. For the same molecule, the viability, T/C (second compound 1 µM, first compound 0.03 µM) was 16.6%, the viability, T/C (second compound 1 µM, first compound 0.0949 µM) was 18.5% and the viability, T/C (second compound 1 µM, first compound 0.3 µM) was 22.3%.

For `O=C(c1cc(Cc2n[nH]c(=O)c3ccccc23)ccc1F)N1CCN(C(=O)C2CC2)CC1` + Cc1c(S(C)(=O)=O)c(-c2cc(F)cc(N3CCN(c4ccc(NS(=O)(=O)c5ccc(NC(CCN6CCC(C(=O)OCCCP(=O)(O)O)CC6)CSc6ccccc6)c(S(=O)(=O)C(F)(F)F)c5)cc4)CC3)c2)c(-c2ccc(Cl)cc2)n1C(C)C, the IC50 [1] was > 10 µM, the IC50 [2] was > 10 µM and the IC50 [3] was > 10 µM. For the same molecule, the IC50 [4] was 8.02 µM, the IC50 [5] was 7.13 µM and the IC50 [6] was 8.47 µM. For the same molecule, the viability, T/C [7] was 95.8%, the viability, T/C [8] was 99.9% and the viability, T/C [9] was 118%. It also gave a viability, T/C [10] of 95.9%, a viability, T/C [11] of 80.5% and a viability, T/C [12] of 54.3%. It also gave a viability, T/C [13] of 117%, a viability, T/C [14] of 99.8% and a viability, T/C [15] of 87%. The viability, T/C [16] was 99.4%, the viability, T/C [17] was 84.5% and the viability, T/C [18] was 57.6%. For the same molecule, the viability, T/C [19] was 117%, the viability, T/C [20] was 109% and the viability, T/C [21] was 101%. For the same molecule, the viability, T/C [22] was 93.7%, the viability, T/C [23] was 72.8% and the viability, T/C [24] was 52.5%. The viability, T/C [25] was 119%, the viability, T/C [26] was 107% and the viability, T/C [27] was 91.9%. The viability, T/C [28] was 105%, the viability, T/C [29] was 88.9% and the viability, T/C [30] was 40.4%. The viability, T/C [31] was 108%, the viability, T/C [32] was 72.5% and the viability, T/C [33] was 79.1%. The viability, T/C [34] was 93.6%, the viability, T/C [35] was 68.2% and the viability, T/C [36] was 42.4%. The viability, T/C [37] was 82.6%, the viability, T/C [38] was 84.4% and the viability, T/C [39] was 74.6%. It also gave a viability, T/C [40] of 86.9%, a viability, T/C [41] of 76.3% and a viability, T/C [42] of 45.4%.

In the case of `COc1c(OCCCN2CCOCC2)ccc2c3n(c(=NC(=O)c4cnc(N)nc4)nc12)CCN3`, the viability, T/C (compound 0.00316 µM) is reported as 79.3% and 87.5% and 83.6%, the viability, T/C (compound 0.01 µM) is reported as 76.8% and 80.8% and 61.1% and the viability, T/C (compound 0.0316 µM) is reported as 56.2% and 55.1% and 46.3%. For the same molecule, the viability, T/C (compound 0.1 µM) was 29.5% and 33.3% and 43%, the viability, T/C (compound 0.316 µM) was 12.4% and 14.6% and 17.5% and the viability, T/C (compound 1 µM) was 8.01% and 9.89% and 10%. The IC50 (curve of compound) was 0.045 µM and 0.0536 µM and 0.0224 µM.

With `C=CC(=O)N1CCN(c2nc(=O)n(-c3c(C)ccnc3C(C)C)c3nc(-c4c(O)cccc4F)c(F)cc23)C(C)C1` (stereo not given) the viability, T/C (compound 0.0316 µM) was 92.7% and 99.7% and 107%, the viability, T/C (compound 0.1 µM) was 90.9% and 101% and 93.8% and the viability, T/C (compound 0.316 µM) was 85.3% and 99.8% and 90.6%. The viability, T/C (compound 1 µM) was 91.7% and 121% and 102%, the viability, T/C (compound 3.16 µM) was 81.7% and 103% and 114% and the viability, T/C (compound 10 µM) was 75% and 76.2% and 103%. For the same molecule, the IC50 (curve of compound) was > 10 µM.

For `C=C(F)C(=O)N1CCN(c2nc(OCC3CCCN3C)nc3c2CCN(c2cccc4cccc(Cl)c24)C3)CC1CC#N` (stereo not given) + Cc1c(S(C)(=O)=O)c(-c2cc(F)cc(N3CCN(c4ccc(NS(=O)(=O)c5ccc(NC(CCN6CCC(C(=O)OCCCP(=O)(O)O)CC6)CSc6ccccc6)c(S(=O)(=O)C(F)(F)F)c5)cc4)CC3)c2)c(-c2ccc(Cl)cc2)n1C(C)C, the IC50 [1] was 3.44 µM, the IC50 [2] was 4.54 µM and the IC50 [3] was 3 µM. For the same molecule, the IC50 [4] was 3.92 µM, the IC50 [5] was 3.29 µM and the IC50 [6] was 4.23 µM. The viability, T/C [7] was 105%, the viability, T/C [8] was 108% and the viability, T/C [9] was 87.6%. It also gave a viability, T/C [10] of 75.2%, a viability, T/C [11] of 60.7% and a viability, T/C [12] of 0.25%. The viability, T/C [13] was 107%, the viability, T/C [14] was 90.5% and the viability, T/C [15] was 97.3%. It also gave a viability, T/C [16] of 95.8%, a viability, T/C [17] of 72.7% and a viability, T/C [18] of 0.14%. The viability, T/C [19] was 103%, the viability, T/C [20] was 88.8% and the viability, T/C [21] was 86.8%. For the same molecule, the viability, T/C [22] was 87%, the viability, T/C [23] was 48% and the viability, T/C [24] was 0.13%. For the same molecule, the viability, T/C [25] was 96.3%, the viability, T/C [26] was 82.6% and the viability, T/C [27] was 87.1%. The viability, T/C [28] was 81.5%, the viability, T/C [29] was 61.8% and the viability, T/C [30] was 0.17%. It also gave a viability, T/C [31] of 97.9%, a viability, T/C [32] of 86% and a viability, T/C [33] of 84.2%. It also gave a viability, T/C [34] of 81.7%, a viability, T/C [35] of 50.8% and a viability, T/C [36] of 0.17%. For the same molecule, the viability, T/C [37] was 200%, the viability, T/C [38] was 167% and the viability, T/C [39] was 231%. It also gave a viability, T/C [40] of 223%, a viability, T/C [41] of 66.7% and a viability, T/C [42] of 0.3%.
